Laboratory results as given in the kinase profiling compilation of Christmann-Franck et al. (2016).

Assays:
Test in all cases: KINOMEscan competition binding
Settings in all cases: compound 10.0 µM
DCLK3 (human) = DCLK3 (human) (UniProt Q9C098)
GSK3A (human) = GSK3A (human) (UniProt P49840)
MAP2K4 (human) = MAP2K4 (human) (UniProt P45985)
ADCK4 (human) = ADCK4 (human) (UniProt Q96D53)
LIMK1 (human) = LIMK1 (human) (UniProt P53667)
FLT4 (human) = FLT4 (human) (UniProt P35916)
PIM2 (human) = PIM2 (human) (UniProt Q9P1W9)
NTRK2 (human) = NTRK2 (human) (UniProt Q16620)
MAPKAPK5 (human) = MAPKAPK5 (human) (UniProt Q8IW41)
PRKACA (human) = PRKACA (human) (UniProt P17612)
HCK (human) = HCK (human) (UniProt P08631)
EGFR (human) = EGFR (human) (UniProt P00533)
MAK (human) = MAK (human) (UniProt P20794)
SIK2 (human) = SIK2 (human) (UniProt Q9H0K1)
NEK1 (human) = NEK1 (human) (UniProt Q96PY6)
NTRK3 (human) = NTRK3 (human) (UniProt Q16288)
MAPK14 (human) = MAPK14 (human) (UniProt Q16539)
PIK3C2G (human) = PIK3C2G (human) (UniProt O75747)
CSNK1A1L (human) = CSNK1A1L (human) (UniProt Q8N752)
MAP3K10 (human) = MAP3K10 (human) (UniProt Q02779)
EPHA4 (human) = EPHA4 (human) (UniProt P54764)
STK36 (human) = STK36 (human) (UniProt Q9NRP7)
PIK3CD (human) = PIK3CD (human) (UniProt O00329)
DAPK1 (human) = DAPK1 (human) (UniProt P53355)
CAMK2A (human) = CAMK2A (human) (UniProt Q9UQM7)
CDK16 (human) = CDK16 (human) (UniProt Q00536)
EPHA6 (human) = EPHA6 (human) (UniProt Q9UF33)
TIE1 (human) = TIE1 (human) (UniProt P35590)
CDKL1 (human) = CDKL1 (human) (UniProt Q00532)
BMPR2 (human) = BMPR2 (human) (UniProt Q13873)
MUSK (human) = MUSK (human) (UniProt O15146)
CSNK2A1 (human) = CSNK2A1 (human) (UniProt P68400)
TTK (human) = TTK (human) (UniProt P33981)
MAPKAPK2 (human) = MAPKAPK2 (human) (UniProt P49137)
CDKL5 (human) = CDKL5 (human) (UniProt O76039)
CLK3 (human) = CLK3 (human) (UniProt P49761)
NEK2 (human) = NEK2 (human) (UniProt P51955)
DCLK2 (human) = DCLK2 (human) (UniProt Q8N568)
STK35 (human) = STK35 (human) (UniProt Q8TDR2)
MAPK12 (human) = MAPK12 (human) (UniProt P53778)

Sequence of DAPK1 (human) (P53355 whole entry, looked up): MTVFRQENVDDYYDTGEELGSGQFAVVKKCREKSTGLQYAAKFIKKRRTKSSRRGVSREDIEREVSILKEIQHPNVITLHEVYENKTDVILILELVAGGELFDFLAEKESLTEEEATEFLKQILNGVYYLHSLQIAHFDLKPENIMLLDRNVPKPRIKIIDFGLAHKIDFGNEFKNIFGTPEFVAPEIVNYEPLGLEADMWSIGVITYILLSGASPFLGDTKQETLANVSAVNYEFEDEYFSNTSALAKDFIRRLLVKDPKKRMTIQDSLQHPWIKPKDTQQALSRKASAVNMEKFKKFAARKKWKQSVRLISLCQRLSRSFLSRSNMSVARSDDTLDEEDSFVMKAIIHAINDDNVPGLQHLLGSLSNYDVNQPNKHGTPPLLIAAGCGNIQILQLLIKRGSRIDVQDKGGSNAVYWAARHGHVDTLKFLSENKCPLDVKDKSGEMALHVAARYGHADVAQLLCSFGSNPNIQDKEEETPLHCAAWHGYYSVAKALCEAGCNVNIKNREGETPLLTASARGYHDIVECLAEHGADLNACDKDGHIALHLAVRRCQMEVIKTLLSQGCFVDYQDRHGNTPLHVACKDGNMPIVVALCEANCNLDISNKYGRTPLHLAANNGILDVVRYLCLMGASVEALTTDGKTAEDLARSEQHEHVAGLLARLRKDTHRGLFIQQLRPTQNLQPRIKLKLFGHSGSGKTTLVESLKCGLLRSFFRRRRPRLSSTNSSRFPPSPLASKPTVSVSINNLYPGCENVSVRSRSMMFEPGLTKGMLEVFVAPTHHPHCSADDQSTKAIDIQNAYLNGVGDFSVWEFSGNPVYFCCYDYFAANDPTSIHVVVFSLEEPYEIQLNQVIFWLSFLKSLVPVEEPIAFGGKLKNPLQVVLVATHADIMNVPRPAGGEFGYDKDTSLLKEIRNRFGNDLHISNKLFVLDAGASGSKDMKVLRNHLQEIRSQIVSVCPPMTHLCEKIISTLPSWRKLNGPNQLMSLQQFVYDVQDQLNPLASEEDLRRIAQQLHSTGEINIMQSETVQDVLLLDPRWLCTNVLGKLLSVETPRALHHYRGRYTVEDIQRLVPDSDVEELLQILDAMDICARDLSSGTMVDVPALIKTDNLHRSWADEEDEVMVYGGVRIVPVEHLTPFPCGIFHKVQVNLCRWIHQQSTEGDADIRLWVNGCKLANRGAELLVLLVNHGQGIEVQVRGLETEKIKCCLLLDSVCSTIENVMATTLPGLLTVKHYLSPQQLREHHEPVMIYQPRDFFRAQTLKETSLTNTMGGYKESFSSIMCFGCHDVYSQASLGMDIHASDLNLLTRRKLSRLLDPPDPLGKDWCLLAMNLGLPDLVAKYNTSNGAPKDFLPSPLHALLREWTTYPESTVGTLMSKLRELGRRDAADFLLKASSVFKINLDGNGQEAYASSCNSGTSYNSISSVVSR
Sequence of MAPKAPK2 (human) (P49137 whole entry, looked up): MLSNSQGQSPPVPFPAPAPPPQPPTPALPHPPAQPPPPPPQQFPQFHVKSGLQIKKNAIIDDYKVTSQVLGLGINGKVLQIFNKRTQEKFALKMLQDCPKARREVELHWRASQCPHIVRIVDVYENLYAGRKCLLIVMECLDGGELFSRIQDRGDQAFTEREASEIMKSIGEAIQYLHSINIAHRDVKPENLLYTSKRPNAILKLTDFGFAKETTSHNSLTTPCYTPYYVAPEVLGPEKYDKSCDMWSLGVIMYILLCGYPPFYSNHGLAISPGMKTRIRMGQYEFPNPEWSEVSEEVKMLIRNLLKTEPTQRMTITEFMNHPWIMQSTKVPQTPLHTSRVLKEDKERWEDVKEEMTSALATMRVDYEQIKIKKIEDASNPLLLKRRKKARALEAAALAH
Sequence of CDKL1 (human) (Q00532 whole entry, looked up): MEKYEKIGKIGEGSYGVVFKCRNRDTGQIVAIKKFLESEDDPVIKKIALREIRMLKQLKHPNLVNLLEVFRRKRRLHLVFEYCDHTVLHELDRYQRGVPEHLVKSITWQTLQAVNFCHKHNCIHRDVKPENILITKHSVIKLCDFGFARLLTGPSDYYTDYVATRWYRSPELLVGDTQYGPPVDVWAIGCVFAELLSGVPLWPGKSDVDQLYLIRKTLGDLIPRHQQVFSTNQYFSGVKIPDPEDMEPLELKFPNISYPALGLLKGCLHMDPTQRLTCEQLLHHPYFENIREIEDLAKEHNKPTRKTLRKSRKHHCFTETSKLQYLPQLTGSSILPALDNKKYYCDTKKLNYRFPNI
Sequence of CSNK2A1 (human) (P68400 whole entry, looked up): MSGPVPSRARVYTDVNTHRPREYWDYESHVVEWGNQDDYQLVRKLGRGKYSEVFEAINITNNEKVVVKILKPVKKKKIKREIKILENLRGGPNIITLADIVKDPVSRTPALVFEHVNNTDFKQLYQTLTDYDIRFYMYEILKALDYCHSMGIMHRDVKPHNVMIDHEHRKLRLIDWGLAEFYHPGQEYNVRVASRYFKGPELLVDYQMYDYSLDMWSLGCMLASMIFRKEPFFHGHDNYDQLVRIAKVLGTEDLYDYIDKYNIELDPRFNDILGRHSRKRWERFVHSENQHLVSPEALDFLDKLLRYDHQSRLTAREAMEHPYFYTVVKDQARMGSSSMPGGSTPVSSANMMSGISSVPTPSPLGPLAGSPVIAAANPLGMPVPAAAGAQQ
Sequence of CLK3 (human) (P49761 whole entry, looked up): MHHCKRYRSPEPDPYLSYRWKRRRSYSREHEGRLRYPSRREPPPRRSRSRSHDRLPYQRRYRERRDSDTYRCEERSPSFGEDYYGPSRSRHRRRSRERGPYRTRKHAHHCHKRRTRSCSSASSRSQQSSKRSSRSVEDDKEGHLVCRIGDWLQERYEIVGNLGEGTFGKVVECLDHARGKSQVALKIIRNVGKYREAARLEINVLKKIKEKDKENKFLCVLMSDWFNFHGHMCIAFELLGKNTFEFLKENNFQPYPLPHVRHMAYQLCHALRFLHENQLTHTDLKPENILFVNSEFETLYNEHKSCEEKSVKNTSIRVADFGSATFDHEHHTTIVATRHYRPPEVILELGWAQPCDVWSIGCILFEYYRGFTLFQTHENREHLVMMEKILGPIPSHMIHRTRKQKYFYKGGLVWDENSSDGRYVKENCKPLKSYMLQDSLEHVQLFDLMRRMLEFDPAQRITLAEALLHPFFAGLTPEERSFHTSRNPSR
Sequence of HCK (human) (P08631 whole entry, looked up): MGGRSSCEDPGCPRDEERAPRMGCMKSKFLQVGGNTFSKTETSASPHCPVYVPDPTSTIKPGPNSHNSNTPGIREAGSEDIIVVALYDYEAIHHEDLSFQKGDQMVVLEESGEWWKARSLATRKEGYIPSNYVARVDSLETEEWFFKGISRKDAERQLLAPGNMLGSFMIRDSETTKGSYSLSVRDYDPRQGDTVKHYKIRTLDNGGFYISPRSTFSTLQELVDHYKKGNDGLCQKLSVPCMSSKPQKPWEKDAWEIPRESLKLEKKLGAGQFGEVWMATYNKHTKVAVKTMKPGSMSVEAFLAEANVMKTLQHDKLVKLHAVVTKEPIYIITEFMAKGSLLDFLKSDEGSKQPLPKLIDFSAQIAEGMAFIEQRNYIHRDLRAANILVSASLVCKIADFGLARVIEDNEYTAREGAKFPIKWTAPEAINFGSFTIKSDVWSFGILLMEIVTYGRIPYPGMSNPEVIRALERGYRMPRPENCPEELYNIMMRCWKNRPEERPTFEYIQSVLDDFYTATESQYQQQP
Sequence of DCLK3 (human) (Q9C098 whole entry, looked up): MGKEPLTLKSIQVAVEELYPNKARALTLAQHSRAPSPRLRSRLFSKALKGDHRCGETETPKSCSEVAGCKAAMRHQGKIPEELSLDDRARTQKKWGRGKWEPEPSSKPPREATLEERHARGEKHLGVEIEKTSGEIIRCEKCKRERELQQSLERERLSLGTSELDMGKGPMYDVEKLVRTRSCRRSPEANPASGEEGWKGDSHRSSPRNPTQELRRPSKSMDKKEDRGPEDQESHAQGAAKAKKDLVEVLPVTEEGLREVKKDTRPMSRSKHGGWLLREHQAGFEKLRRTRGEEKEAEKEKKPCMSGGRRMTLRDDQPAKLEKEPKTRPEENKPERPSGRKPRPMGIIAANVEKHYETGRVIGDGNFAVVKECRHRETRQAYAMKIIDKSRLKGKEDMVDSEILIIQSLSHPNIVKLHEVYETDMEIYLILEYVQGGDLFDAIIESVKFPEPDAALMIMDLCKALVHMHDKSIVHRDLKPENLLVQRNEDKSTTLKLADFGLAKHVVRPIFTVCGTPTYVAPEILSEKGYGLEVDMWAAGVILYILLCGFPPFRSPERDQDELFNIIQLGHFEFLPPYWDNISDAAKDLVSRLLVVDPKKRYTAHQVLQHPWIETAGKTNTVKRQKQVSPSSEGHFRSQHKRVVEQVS
Sequence of CDK16 (human) (Q00536 whole entry, looked up): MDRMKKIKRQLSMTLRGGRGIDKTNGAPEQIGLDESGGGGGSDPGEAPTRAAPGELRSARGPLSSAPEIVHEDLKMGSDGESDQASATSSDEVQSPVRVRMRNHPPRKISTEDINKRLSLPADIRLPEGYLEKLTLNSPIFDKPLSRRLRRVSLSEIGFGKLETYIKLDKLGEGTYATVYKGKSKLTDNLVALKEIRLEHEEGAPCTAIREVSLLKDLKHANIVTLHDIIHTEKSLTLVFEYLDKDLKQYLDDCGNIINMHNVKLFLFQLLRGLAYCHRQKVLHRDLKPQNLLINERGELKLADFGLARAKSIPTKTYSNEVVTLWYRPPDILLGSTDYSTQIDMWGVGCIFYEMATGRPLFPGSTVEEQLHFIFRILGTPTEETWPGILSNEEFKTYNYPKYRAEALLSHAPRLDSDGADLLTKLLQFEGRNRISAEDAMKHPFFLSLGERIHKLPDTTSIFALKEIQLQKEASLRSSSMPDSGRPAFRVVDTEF

Compound | kinase still bound, per cent of control (DCLK3 (human)) | kinase still bound, per cent of control (GSK3A (human)) | kinase still bound, per cent of control (MAP2K4 (human)) | kinase still bound, per cent of control (ADCK4 (human)) | kinase still bound, per cent of control (LIMK1 (human)) | kinase still bound, per cent of control (FLT4 (human)) | kinase still bound, per cent of control (PIM2 (human)) | kinase still bound, per cent of control (NTRK2 (human)) | kinase still bound, per cent of control (MAPKAPK5 (human)) | kinase still bound, per cent of control (PRKACA (human)) | kinase still bound, per cent of control (HCK (human)) | kinase still bound, per cent of control (EGFR (human)) | kinase still bound, per cent of control (MAK (human)) | kinase still bound, per cent of control (SIK2 (human)) | kinase still bound, per cent of control (NEK1 (human)) | kinase still bound, per cent of control (NTRK3 (human)) | kinase still bound, per cent of control (MAPK14 (human)) | kinase still bound, per cent of control (PIK3C2G (human)) | kinase still bound, per cent of control (CSNK1A1L (human)) | kinase still bound, per cent of control (MAP3K10 (human)) | also measured
COc1cc(C(=O)N2CCC(N3CCN(C)CC3)CC2)ccc1Nc1ncc2c(n1)N(C)c1ccccc1C(=O)N2C | 90% | 100% | 100% | 94% | 95% | 100% | 100% | 100% | 97% | 100% | 100% | 84% | 72% | 98% | 83% | 100% | 87% | 100% | 100% | 100% | kinase still bound, per cent of control (EPHA4 (human)): 89%; kinase still bound, per cent of control (STK36 (human)): 97%; kinase still bound, per cent of control (PIK3CD (human)): 62%; kinase still bound, per cent of control (DAPK1 (human)): 73%; kinase still bound, per cent of control (CAMK2A (human)): 21%; kinase still bound, per cent of control (CDK16 (human)): 96%; kinase still bound, per cent of control (EPHA6 (human)): 89%; kinase still bound, per cent of control (TIE1 (human)): 100%; kinase still bound, per cent of control (CDKL1 (human)): 78%; kinase still bound, per cent of control (BMPR2 (human)): 87%; kinase still bound, per cent of control (MUSK (human)): 99%; kinase still bound, per cent of control (CSNK2A1 (human)): 100%; kinase still bound, per cent of control (TTK (human)): 28%; kinase still bound, per cent of control (MAPKAPK2 (human)): 100%; kinase still bound, per cent of control (CDKL5 (human)): 100%; kinase still bound, per cent of control (CLK3 (human)): 95%; kinase still bound, per cent of control (NEK2 (human)): 100%; kinase still bound, per cent of control (DCLK2 (human)): 0.45%; kinase still bound, per cent of control (STK35 (human)): 100%; kinase still bound, per cent of control (MAPK12 (human)): 76%
N#CCNC(=O)c1ccc(-c2ccnc(Nc3ccc(N4CCOCC4)cc3)n2)cc1 | 0.45% | 100% | 32% | 33% | 100% | 48% | 100% | 67% | 4.4% | 96% | 100% | 100% | 100% | 14% | 42% | 63% | 100% | 100% | 100% | 62% | kinase still bound, per cent of control (EPHA4 (human)): 100%; kinase still bound, per cent of control (STK36 (human)): 95%; kinase still bound, per cent of control (PIK3CD (human)): 45%; kinase still bound, per cent of control (DAPK1 (human)): 7%; kinase still bound, per cent of control (CAMK2A (human)): 26%; kinase still bound, per cent of control (CDK16 (human)): 21%; kinase still bound, per cent of control (EPHA6 (human)): 98%; kinase still bound, per cent of control (TIE1 (human)): 87%; kinase still bound, per cent of control (CDKL1 (human)): 60%; kinase still bound, per cent of control (BMPR2 (human)): 100%; kinase still bound, per cent of control (MUSK (human)): 100%; kinase still bound, per cent of control (CSNK2A1 (human)): 52%; kinase still bound, per cent of control (TTK (human)): 22%; kinase still bound, per cent of control (MAPKAPK2 (human)): 100%; kinase still bound, per cent of control (CDKL5 (human)): 65%; kinase still bound, per cent of control (CLK3 (human)): 91%; kinase still bound, per cent of control (NEK2 (human)): 77%; kinase still bound, per cent of control (DCLK2 (human)): 55%; kinase still bound, per cent of control (STK35 (human)): 57%; kinase still bound, per cent of control (MAPK12 (human)): 100%
